US20250255847A1, “[…]s: Novel Drugs for Triple Negative Breast Cancer” (SIMMARON RSEARCH INC, priority 2024, published 2025)

What was measured:
[1] = Health vitals and open-field test in PDX mice; type: in vivo, mouse; conditions: end of study, 2 mg/Kg Bwt i.p.
Method: FIG. 12 illustrates an embodiment of the present invention and illustrates SIM-1 and SIM-2 arrest the growth of human TNBC tumor in patient-derived xenograft mouse model. TM00096 tumor (origin of invasive ductal carcinoma isolated from a person) was seeded in the flank of 6-week-old female SCID mice by Jackson Laboratory and then shipped to our research facility. Once the tumor reached ˜4 mm in size (˜30 mm^3 in volume), n=6 mice/group were treated by vehicle (5% DMSO), SIM-1 and SIM-2 (2 mg/Kg Bwt mixed with 5% DMSO) via i.p. for 2 weeks in every alternate day. The tumor size was monitored accordingly during the treatment and two more weeks after the last dose to evaluate the recurrence. […] (B) Tumor size was measured every alternate day for 4 weeks by a digital caliper and then the volume was calculated using the formula 0.5*Length*Width^2. […] (D) Body weight was recorded during the course of the study to monitor the adverse metabolic outcome due to the drug administration. (E) The heart rate was monitored at 0-, 7-, 14-, and 28-days post SIM-1 and SIM-2 treatments by MouseStat Jr console (Kent Scientific) as per the manufacturer's instruction. (F) At the end of the study, the gross motor performance was recorded for n=6 (i) vehicle, (ii) SIM-1-, and (iii) SIM-2-treated mice. […]

HMEC cells = experiment: Annexin V/PI staining in HMEC cells; type: cell-based; conditions: 25 nM
Method: FIG. 11 illustrates an embodiment of the present invention and illustrates SIM-1 and SIM-2 induced apoptosis in MDA-MB-468 TNBC cells, but not HMEC control cells. MDA-MB-468 cells were treated with increasing doses of (A) SIM-1 and (B) SIM-2 for 48 hrs followed by lactate dehydrogenase (LDH) release assay in the supernatants. The result was offset with cell-bound LDH and presented as a percent of DMSO control as discussed under method section. Half-maximal cytotoxicity or CT50 analyses were performed plotting maximum response as an index of increasing doses of (C) SIM-1 and (D) SIM-2. AnnexinV (green) and propidium iodide (red) dual-labeling were performed to evaluate apoptotic response in MDA-MB-468 cells once treated with increasing doses of (E) SIM-1 and (F) SIM-2 for 24 hrs. Nuclei were stained with DAPI. TUNEL assay was performed in MDA-MB-468 cells after treatment with 25 nM of (G) SIM-1. Brown-colored TUNEL bodies were visualized at cresyl violet-stained blue nuclei. (H) The number of TUNEL bodies were counted as a percent of 100 cresyl violet-stained blue cells. Ten independent images were counted for the quantification study. Similarly, SIM-2 was assessed for (I) TUNEL and (J) subsequent quantification analyses. One-way ANOVA was performed to test the significance of mean between groups at **p<0.01 and ****p<0.0001. […]

| Structure (SMILES) | open-field test: gross movement, total distance traveled, average speed [1] | apoptosis in healthy normal cells (annexin V/PI) (HMEC cells) |
| --- | --- | --- |
| CCOC(=O)c1c(NC(C)=O)sc2c(Cl)c(/C=N/O)ccc12 [SIM-2, ethyl 2-acetamido-7-chloro-6-(hydroxyiminomethyl)-1-benzothiophene-3-carboxylate] | did not show any adverse outcome | unable to induce apoptosis |
| O=C(O)CCC(=O)NCc1csc2ccc(Cl)cc12 [SIM-1, 4-[(5-chloro-1-benzothiophen-3-yl)methylamino]-4-oxobutanoic acid] | did not show any adverse outcome | unable to induce apoptosis |
